Measurements from ChEMBL document CHEMBL4814061, “Novel Azaquinolones as PARP1 Inhibitors for Treating Cancer” (ACS Med Chem Lett, 2021).

Each compound was assayed against Poly [ADP-ribose] polymerase 1 (Homo sapiens, UniProt P09874) (assay: Inhibition of recombinant full length 6His-tagged PARP1 (unknown origin) incubated for 4 hrs by fluorescence anisotropy assay).
Sequence of Poly [ADP-ribose] polymerase 1 (P09874 whole entry): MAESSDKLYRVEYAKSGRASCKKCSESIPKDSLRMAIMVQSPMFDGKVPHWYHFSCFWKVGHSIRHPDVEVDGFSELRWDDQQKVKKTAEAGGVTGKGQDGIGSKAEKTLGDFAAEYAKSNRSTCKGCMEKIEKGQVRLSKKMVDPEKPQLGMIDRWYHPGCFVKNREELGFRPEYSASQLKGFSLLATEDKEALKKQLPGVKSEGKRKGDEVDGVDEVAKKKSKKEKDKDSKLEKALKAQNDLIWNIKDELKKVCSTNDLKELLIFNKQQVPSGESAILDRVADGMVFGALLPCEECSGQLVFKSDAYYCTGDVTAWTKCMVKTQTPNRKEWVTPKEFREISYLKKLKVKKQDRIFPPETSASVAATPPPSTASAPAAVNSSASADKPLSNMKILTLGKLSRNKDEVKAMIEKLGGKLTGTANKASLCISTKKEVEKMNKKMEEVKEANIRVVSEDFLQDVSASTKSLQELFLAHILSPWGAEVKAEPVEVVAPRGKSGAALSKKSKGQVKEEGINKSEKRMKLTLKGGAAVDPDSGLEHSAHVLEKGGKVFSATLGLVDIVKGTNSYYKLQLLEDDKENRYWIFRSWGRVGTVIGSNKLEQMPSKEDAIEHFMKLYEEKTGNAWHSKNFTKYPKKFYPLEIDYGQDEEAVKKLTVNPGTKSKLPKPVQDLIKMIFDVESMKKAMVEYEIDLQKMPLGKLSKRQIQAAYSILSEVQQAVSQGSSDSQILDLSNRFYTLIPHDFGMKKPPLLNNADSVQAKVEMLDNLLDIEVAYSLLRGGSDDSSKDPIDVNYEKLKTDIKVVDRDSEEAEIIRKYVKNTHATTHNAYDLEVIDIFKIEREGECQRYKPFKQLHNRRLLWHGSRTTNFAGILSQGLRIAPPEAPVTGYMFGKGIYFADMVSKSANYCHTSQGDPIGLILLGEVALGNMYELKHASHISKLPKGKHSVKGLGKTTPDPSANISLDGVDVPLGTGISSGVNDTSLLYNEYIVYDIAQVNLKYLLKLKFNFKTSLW

Row | SMILES | IC50
1 | CNC(=O)c1ccc(N2CCN(Cc3cc4[nH]c(=O)c(CCF)cc4cn3)CC2)cn1 | 2 nM
2 | CCc1cc2cnc(CN3CCN(c4ccc(C(=O)NC)nc4Cl)CC3)cc2[nH]c1=O | 3 nM
3 | CNC(=O)c1ccc(N2CCN(Cc3cc4[nH]c(=O)c(CC(F)F)cc4cn3)CC2)c(F)n1 | 3 nM
4 | CCc1cc2cnc(CN3CCN(c4ccc(C(=O)NC)nc4F)CC3)cc2[nH]c1=O | 2 nM
5 | CCc1cc2cnc(CN3CCN(c4ccc(C(N)=O)nc4)CC3)cc2[nH]c1=O | 2 nM
